In experiment [1] the test system is U-46619 induced platelet aggregation. The experiment in a line: Ex vivo inhibition of U-46619 induced platelet aggregation, intravenous (rat). As to conditions: for ED50: Platelet, iv, 0.5 min, i.v. bolus, blood sampled 30 sec. later. Format: in vivo. Here is the method:
(§1) II. Ex vivo--(rat) Inhibition of U-46619 induced platelet aggregation
Rats were anesthetized with ether and the jugular vein exposed. Compound dissolved in 0.1M Na Carbonate was injected as a bolus into the jugular vein. Blood (5 ml, heparanized) was sampled 30 sec. later from the abdominal aorta. PRP was prepared by quick centrifugation (Eppendorf, model 5415 at 12,000 rpm for 5 sec.) PPP was prepared by centrifugation for 2 min. PRP was diluted 1:1 with PPP from, similarly treated animals. Aggregation was monitored for 5 min. and inhibition was determined as previously described.

The test system of experiment [2] is collagen induced platelet aggregation. As to the kind of experiment: Inhibition of collagen induced platelet aggregation in dog PRP. As to conditions: Canis lupus familiaris. Format: cell-based. Here is the method:
c. Inhibition of collagen induced platelet aggregation in dogs by SC-44161 and SC-46984
Blood was collected into citrated vacutainers from the jugular veins of conscious dogs and centrifuged at 200×g for 7 min. PRP was separated and an aliquot (450 μl ) incubated 1 min. in the aggregometer (as described above). Collagen (50 μl, Helena Reagent, bovine tendon) was added and aggregation monitored for 5 min. Percent inhibition and IC50 's were determined as previously described.

The test system of experiment [3] is U-46619-induced platelet aggregation. The experiment in a line: Inhibition of U-46619-induced platelet aggregation (rat), in vitro in rat platelet rich plasma. In kind it is cell-based. The following applies: for IC50: 1 min preincubation at 37° C. Here is the method:
a. Inhibition of U-46619-induced platelet aggregation (rat)
Platelet rich plasma (PRP) was prepared from heparanized whole blood (5 units/ml) drawn from the abdominal aorta of ether anesthetized rats. PRP was prepared by centrifugation (Sorvall RC2B, DuPont, Wilmington, Del.) of the whole blood at 150×g for 10 min. Platelet poor plasma (PPP) was prepared by centrifugation at 1200×g for 20 min. Aliquots of PRP and PPP were used to standardize the aggregometer (Payton, Buffalo, N.Y., model 300B) with the recorder (Riken Denshi 2 channel recorder, Payton, model SP H5P) for measurement of […] light transmittance, respectively.
Platelet aggregation was measured as an increase in light transmittance. PRP (390 μl aliquot+5 μl compound vehicle) was preincubated for 1 min. at 37° C., with stirring at 900 rpm in the aggregometer. The vehicle control response was obtained by adding U-46619 (Cayman Chemical, Ann Arbor, Mich., 1-2 units/cuvette/10 μl ) to the aliquot of PRP. Aggregation was monitored until maximum aggregation was achieved (approximately 3 min. following the addition of U-46619). Amount of aggregation was measured by grids on the strip chart.
Compounds were dissolved in either ethanol (ETOH) or Na2 CO3 (0.1M) and preincubated at the desired concentration in PRP for 1 min. at 37° C. with stirring. At the end of the preincubation, U-46619 was added and aggregation measured. Inhibition of aggregation by compound was calculated as percent inhibition of the control aggregation response to U-46619. Dose response curves were generated and IC50 's calculated by linear regression.

For experiment [4], the system named is U-46619 induced platelet aggregation. As to the kind of experiment: Ex vivo inhibition of U-46619 induced platelet aggregation, intragastric (rat). In kind it is in vivo. The following applies: for ED50: read-out: I.G. ED50, ex vivo inhibition of U-46619 induced aggregation; for I.V./I.G. ratio: from the I.V. and the I.G. studies, rat ED50. The procedure:
as §1
Compounds dissolved in Na Carbonate were administered to conscious rats with an I.G. tube. Fifteen minutes post administration (time previously determined to show maximum effect), rats were anesthetized with ether and blood was sampled from the abdominal aorta. PRP was prepared as described in II a.

The subject of experiment [5] is human washed platelets. As to the kind of experiment: Analysis of partial agonism with SC-46985 (human washed platelets). Format: cell-based. The procedure: b. Analysis of partial agonism with SC-46985 (human washed platelets)
(§2) Sixty ml of blood were drawn into 1/10 volume of CCD (100 mM Na Citrate and 136 mM glucose, pH 6.5 with HCl) and PRP prepared as described above. PRP was placed on ice for 15 min. One half of the volume of CCD was added and recentrifuged. The platelet pellet was gently resuspended in 1/2 the original volume of PRP in a 0° C. modified Tangen-Hepes-BSA buffer (145 mM NaCl, 5 mM KCl, 0.05 mM CaCl2, 0.1 mM MgCl2, 11 mM glucose, 15 mM Hepes, 1 mg/ml bovine serum albumin, pH adjusted to 7.4 with NaOH). The resuspended platelets were incubated undisturbed at 37° C. for 30 min. After incubation a platelet count was determined and adjusted to 3×10^8 cells/ml with the Tangen-Hepes-BSA buffer.
(§3) 425 μl of the washed human platelet suspension was incubated in the aggregometer in the presence of 16 mM CaCl2 (50 μl ) and SC-46985 for 5 and 10 min. […] (In a study similar to (a) above, aliquots of human washed platelets were incubated with various concentrations of SC-46985 and U-46619 to determine dose-related inhibition of aggregation).

Experiment [6] relates to human washed platelets stimulated with U-46619. The experiment in a line: Inhibition of U-46619 stimulated aggregation of human washed platelets by SC-46985. In kind it is cell-based. As to conditions: Platelet. Here is the method: as §2, §3
Where [7] appears, read: Rattus norvegicus, Platelet, vehicle Na2CO3 (0.1M), (a) values are estimates based on all-or-none responses.
Setting [8] is: Platelet, po, 0.25 h, rat, intragastric, 15 min post administration.
Setting [9] is: Rattus norvegicus, Platelet, vehicle ETOH.

For the compound `CC(=NNC(=S)Nc1ccccc1)C1C2CCC(C2)C1CC=CCCCC(=O)O` (racemic) [SC-44161, (±)7-[3α[[(Phenylamino)thioxomethyl]hydrazono]ethyl]1α,4α-bicyclo[2.2.1]hept-2β-yl]-5Z-heptenoic acid], the ED50 was found to be 0.031 mg/kg in experiment [1] and 1.21 mg/kg in experiment [4] (setting [8]). Also, the figures for the half-inhibitory concentration (IC50) in experiment [2] and in experiment [3] (setting [7]) were 11400 nM and 70 nM, respectively. The “more potent when in aqueous solution than when dissolved in ethanol” value in experiment [3] (rat PRP, Na carbonate vs ETOH) is recorded as 5-10 fold. For the same compound, in experiment [4], the I.V./I.G. ratio came out at 39.

In the case of `CC(=NNC(=S)Nc1ccccc1)[C@@H]1[C@H]2CC[C@H](C2)[C@H]1C/C=C\CCCC(=O)O` [SC-46984, 7-[3α-[1-[[(Phenylamino)thioxomethyl]hydrazono]ethyl]-1R, 1α,4α-bicyclo[2.2.1]hept-2β-yl]5Z-heptenoic acid], the 50% effective dose (ED50) in experiment [1] worked out at 0.0087 mg/kg; in experiment [4] (setting [8]) it was 0.44 mg/kg. The “times more potent than SC-44161 (I.V.)” value in experiment [1] (i.v., ex vivo) is reported as “approximately 3.5 times”. The figures for the IC50 in experiment [2], in experiment [3] (setting [9]) and in experiment [3] (setting [7]) were 2090 nM, 50 nM and 0.7 nM, respectively. Further, the “more potent in aqueous solution than in ethanol” value in experiment [3] (rat PRP, Na carbonate vs ETOH) is on record as 10-50 times. The “times more potent than SC-44161 (in vitro)” value in experiment [3] (rat PRP, U-46619) is recorded as “approximately 100 times”. Besides, the I.V./I.G. ratio in experiment [4] was found to be 51. In experiment [4] (rat, intragastric, ex vivo), the “times more potent than SC-44161 (I.G.)” value is reported as “approximately 2.8 times”.

`CC(=NNC(=S)Nc1ccccc1)[C@H]1[C@@H]2CC[C@@H](C2)[C@@H]1C/C=C\CCCC(=O)O` [SC-46985]: in experiment [1], the median effective dose (ED50) amounted to 0.045 mg/kg. Besides, the “times less potent than SC-44161 (I.V.)” value in experiment [1] (i.v., ex vivo) is reported as “approximately 1.5 times”. Further, the partial agonist activity entry in experiment [5] (5 and 10 min. incubation) was “lack of partial agonist activity”. The “evidence of shape change or aggregation (partial agonism)” value in experiment [5] (after 5 and 10 min. incubation) was “no evidence of shape change or aggregation”. The concentration for half-maximal inhibition (IC50) in experiment [3] (setting [9]) was 970 nM; in experiment [3] (setting [7]), roughly 2500 nM; in experiment [6], 5600 nM.

In experiment [3] (vehicle ETOH), `CC(=NNC(=S)Nc1ccccc1)C1C2CCC(C2)C1CC=CCCCC(=O)O` (stereo not shown) [SC-46986] showed an IC50 of 690 nM.

For `CC(=NNC(=S)Nc1ccccc1)[C@@H]1[C@H]2CC[C@H](C2)[C@H]1C/C=C/CCCC(=O)O` [SC-47721, 7-[3α-[1-[[(Phenylamino)thioxomethyl]hydrazono]ethyl]-1R, 1α,4α-bicyclo[2.2.1]hept-2β-yl]-5E-heptenoic acid], the IC50 in experiment [3] (setting [7]) is roughly 7.5 nM. Moreover, in experiment [3] (rat PRP, U-46619), the “potency compared with SC-46984 (in vitro)” value is “less potent than SC 46984” and the “times more potent than SC-44161 (in vitro)” value is on record as 10-50 times. The same compound had an inhibition at 1 mg/kg in experiment [4] (Platelet, po, 0.25 h, rat, intragastric, 1 mg/kg, 15 min post administration) of 37.5%.

(Values after patent US4942256A, “Novel intermediates in the manufacture of novel thromboxane A2 antagonists” (National Research Development Corporation, priority 1988, dated 1990).)
